This passage reports TGI results from PubChem BioAssay (NCI).

Test systems include COLO 205 colon; SW-620 colon; HS 578T breast; SNB-19 CNS; MOLT-4 leukemia; T-47D breast; ACHN renal; RXF 393 renal; PC-3 prostate; NCI-H226 lung; A498 renal; U251 CNS; MALME-3M melanoma; HCT-116 colon; UO-31 renal; UACC-62 melanoma; MDA-N; NCI-H522 lung; NCI/ADR-RES ovarian.
Test in all cases: growth of human tumour cells (NCI), 48 h

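Cultured in 96-well plates, cells were exposed to test compound for 48 hours across five concentrations. TGI denotes the concentration required for complete inhibition of growth.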

As to `O=C(CC(=O)n1nc(-c2ccccc2)c(N=Nc2ccc(Cl)cc2)c1-c1ccccc1)Nc1cccc(Cl)c1`, the TGI in the experiment on COLO 205 colon, in the experiment on SW-620 colon, in the experiment on HS 578T breast, in the experiment on SNB-19 CNS, in the experiment with MOLT-4 leukemia and in the experiment on T-47D breast was > 100 µM each time. In addition, the TGI in the experiment on ACHN renal, in the experiment on RXF 393 renal, with PC-3 prostate, with NCI-H226 lung, in the experiment on A498 renal and with U251 CNS was > 100 µM in each case. Further, the TGI in the experiment on MALME-3M melanoma, in the experiment with HCT-116 colon, in the experiment with UO-31 renal, with UACC-62 melanoma and with MDA-N was > 100 µM throughout.

On to `C/C(=N\NC(=S)N1CC2CCC(CC2)C1)c1ccncn1`, for which the TGI with COLO 205 colon is < 0.0333 µM; with SW-620 colon it was 18.4 µM; in the experiment with HS 578T breast, > 24.4 µM; in the experiment with SNB-19 CNS, 15 µM; in the experiment with NCI-H522 lung, 2.32 µM; in the experiment with T-47D breast, 3.48 µM. Also, the TGI is 3.28 µM with ACHN renal; 2.25 µM with RXF 393 renal; 15 µM with PC-3 prostate; 2.33 µM in the experiment with NCI-H226 lung; 2.84 µM with A498 renal; 6.23 µM in the experiment with U251 CNS. The TGI came out at 1.42 µM in the experiment on MALME-3M melanoma; 1.5 µM in the experiment on HCT-116 colon; 0.911 µM in the experiment with UO-31 renal; 1.04 µM with UACC-62 melanoma; 15.4 µM with MDA-N.

On to `O=C(c1ccc(Cl)cc1Cl)N(C(=O)N1CCCCC1)c1ccccc1`, for which the TGI in the experiment with COLO 205 colon, in the experiment with SW-620 colon, in the experiment on HS 578T breast, in the experiment with SNB-19 CNS, in the experiment on MOLT-4 leukemia and with ACHN renal was > 100 µM throughout. Besides, the TGI with RXF 393 renal, in the experiment on PC-3 prostate, in the experiment with NCI/ADR-RES ovarian, in the experiment on NCI-H226 lung, in the experiment on A498 renal and in the experiment with U251 CNS was > 100 µM each time. Besides, the TGI in the experiment with MALME-3M melanoma, in the experiment with HCT-116 colon, with UO-31 renal, in the experiment with UACC-62 melanoma and in the experiment on MDA-N was > 100 µM each time.

For `CC(=O)O[C@@H]1C=C(C)[C@H](CBr)O[C@@]2(C)CC[C@H](Br)C(C)(C)[C@H]12`, the TGI was > 100 µM in the experiment on COLO 205 colon; > 100 µM with SW-620 colon; > 100 µM with HS 578T breast; > 100 µM with SNB-19 CNS; 90.2 µM in the experiment on NCI-H522 lung; > 100 µM in the experiment on MOLT-4 leukemia. For the same compound, the TGI with ACHN renal, in the experiment on RXF 393 renal, in the experiment with PC-3 prostate, in the experiment on NCI/ADR-RES ovarian, in the experiment with NCI-H226 lung and in the experiment with A498 renal was > 100 µM throughout. Also, the TGI in the experiment with U251 CNS, with HCT-116 colon, in the experiment with UO-31 renal, in the experiment with UACC-62 melanoma and in the experiment with MDA-N was > 100 µM in each case.

Consider `O=[N+]([O-])C(C(Cl)=C(Cl)Cl)=C(N1CCOCC1)N1CCOCC1`, for which the TGI in the experiment on COLO 205 colon, with HS 578T breast, in the experiment with SNB-19 CNS, in the experiment with NCI-H522 lung, with MOLT-4 leukemia and in the experiment with T-47D breast was > 100 µM throughout. In addition, the TGI in the experiment on ACHN renal, in the experiment with RXF 393 renal, in the experiment on PC-3 prostate, in the experiment with NCI-H226 lung, in the experiment on A498 renal and in the experiment on U251 CNS was > 100 µM throughout. The TGI with MALME-3M melanoma, in the experiment on HCT-116 colon, in the experiment on UO-31 renal, with UACC-62 melanoma and in the experiment on MDA-N was > 100 µM in each case.

Consider `O=C(CC(=O)N(C(=O)c1ccccc1)c1ccc(Cl)cc1)N/N=C\c1cc(N=Nc2ccccc2Cl)ccc1O`, for which the TGI with COLO 205 colon is > 100 µM; with SW-620 colon, > 100 µM; with HS 578T breast it was 61.6 µM; in the experiment on SNB-19 CNS, 94.2 µM; in the experiment on MOLT-4 leukemia, 37.8 µM; with T-47D breast, > 100 µM. The TGI with ACHN renal was > 100 µM; with RXF 393 renal, > 100 µM; in the experiment on PC-3 prostate, > 100 µM; with NCI-H226 lung, > 100 µM; in the experiment with A498 renal, 85.6 µM; in the experiment on U251 CNS it was > 100 µM. Moreover, the TGI with MALME-3M melanoma, with HCT-116 colon, in the experiment on UO-31 renal, in the experiment with UACC-62 melanoma and in the experiment with MDA-N was > 100 µM throughout.

With `Cc1ccccc1Nc1cn(COCc2ccccc2)c(=O)[nH]c1=O`, the TGI in the experiment with COLO 205 colon, with SW-620 colon, with HS 578T breast, with SNB-19 CNS, in the experiment on NCI-H522 lung and with MOLT-4 leukemia was > 100 µM each time. In addition, the TGI in the experiment with ACHN renal, in the experiment with RXF 393 renal, in the experiment with PC-3 prostate, in the experiment with NCI/ADR-RES ovarian, in the experiment on A498 renal and in the experiment on U251 CNS was > 100 µM throughout. Further, the TGI in the experiment on HCT-116 colon, in the experiment with UO-31 renal, in the experiment on UACC-62 melanoma and in the experiment with MDA-N was > 100 µM in each case.

Regarding `Cc1nnc([C@@]2(C)CC[C@H]3[C@@H](CC=C4C[C@@H](O)CC[C@@]43C)[C@@H]2CC#N)o1`, the TGI in the experiment on COLO 205 colon, with SW-620 colon, in the experiment on HS 578T breast, with SNB-19 CNS, in the experiment on NCI-H522 lung and in the experiment with MOLT-4 leukemia was > 100 µM in each case. The TGI with ACHN renal, with RXF 393 renal, in the experiment with PC-3 prostate, with NCI/ADR-RES ovarian, in the experiment with NCI-H226 lung and with A498 renal was > 100 µM in each case. The TGI in the experiment on U251 CNS, with MALME-3M melanoma, in the experiment with HCT-116 colon, in the experiment on UO-31 renal, with UACC-62 melanoma and with MDA-N was > 100 µM in each case.

Turning to `COc1ccc(-c2c(C(C)=O)c(-c3ccccc3)n(C3OC(COC(C)=O)C(OC(C)=O)C(OC(C)=O)C3OC(C)=O)c(=S)c2C#N)cc1` (centres undefined), the TGI with COLO 205 colon, with SW-620 colon, with SNB-19 CNS, in the experiment with NCI-H522 lung, in the experiment with MOLT-4 leukemia and in the experiment with T-47D breast was > 100 µM throughout. The TGI in the experiment with ACHN renal, in the experiment on RXF 393 renal, in the experiment on NCI/ADR-RES ovarian, in the experiment with NCI-H226 lung, in the experiment with A498 renal and with U251 CNS was > 100 µM each time. In addition, the TGI in the experiment on MALME-3M melanoma, with HCT-116 colon, in the experiment with UACC-62 melanoma and with MDA-N was > 100 µM each time.

In the case of `O=P(c1ccccc1)(c1ccccc1)C(NCc1ccccc1)c1ccc(F)cc1` (centres undefined), the TGI in the experiment on COLO 205 colon was 29.7 µM; in the experiment with SW-620 colon, 35.5 µM; with HS 578T breast, 98.2 µM; in the experiment on SNB-19 CNS, 33.5 µM; in the experiment with NCI-H522 lung, 25.2 µM; in the experiment with MOLT-4 leukemia it was 37.5 µM. For the same compound, the TGI came out at 60.7 µM in the experiment with T-47D breast; 27.5 µM in the experiment with ACHN renal; 28.3 µM in the experiment with RXF 393 renal; 41.2 µM in the experiment with NCI/ADR-RES ovarian; 40.4 µM in the experiment with NCI-H226 lung; 32 µM with A498 renal. Besides, the TGI came out at 30 µM in the experiment on U251 CNS; 34.6 µM in the experiment with MALME-3M melanoma; 25.7 µM in the experiment on HCT-116 colon; 25.3 µM with UO-31 renal; 27.3 µM in the experiment on UACC-62 melanoma; 33.1 µM with MDA-N.

Consider `COc1ccc2c(c1)OCc1c-2oc2ccccc2c1=O`, for which the TGI in the experiment with COLO 205 colon, with NCI-H522 lung, in the experiment on MOLT-4 leukemia, in the experiment on ACHN renal, in the experiment with PC-3 prostate and with NCI/ADR-RES ovarian was > 100 µM in each case. The TGI with NCI-H226 lung, in the experiment with A498 renal, with U251 CNS, in the experiment with MALME-3M melanoma, in the experiment with HCT-116 colon and with UO-31 renal was > 100 µM in each case. Further, the TGI in the experiment on UACC-62 melanoma and in the experiment on MDA-N was > 100 µM each time.

Turning to `Cc1cc(O)c(/C=N/C(=S)NCCc2ccccc2)c(=O)o1`, the TGI with COLO 205 colon, in the experiment on SW-620 colon, in the experiment on SNB-19 CNS, in the experiment on MOLT-4 leukemia, in the experiment on T-47D breast and with ACHN renal was > 100 µM each time. Moreover, the TGI in the experiment with PC-3 prostate, with NCI/ADR-RES ovarian, with NCI-H226 lung, in the experiment with U251 CNS, in the experiment on HCT-116 colon and in the experiment with UO-31 renal was > 100 µM each time. The TGI in the experiment on MDA-N was > 100 µM.

`S=C(/N=c1/sc(Nc2ccccc2)nc2sc3c(c12)CCCC3)Nc1ccccc1`: the TGI in the experiment on COLO 205 colon, in the experiment on SW-620 colon, with HS 578T breast, in the experiment on SNB-19 CNS, in the experiment with NCI-H522 lung and in the experiment with MOLT-4 leukemia was > 62.5 µM each time. Also, the TGI in the experiment on ACHN renal, in the experiment on RXF 393 renal, in the experiment on PC-3 prostate, in the experiment with NCI-H226 lung, with A498 renal and with U251 CNS was > 62.5 µM in each case. For the same compound, the TGI in the experiment with MALME-3M melanoma, with HCT-116 colon, in the experiment with UO-31 renal, in the experiment with UACC-62 melanoma and with MDA-N was > 62.5 µM in each case.
